In brackets after ≈: the same amount, converted by molar mass. Values belong to the compound of their own block, whether it stands above or below them.
Key:
[1] = Cmax in rat in presence of Ritonavir; format: ADME; details: in vivo
[2] = AUC in rat in presence of Ritonavir; format: ADME; set-up: concentration or dose not given beside the values; details: in vivo
[3] = Stability of compound in PBS at pH 5.5 assessed as half life; format: physicochemical
[4] = Water solubility of compound; format: physicochemical
[5] = Stability of compound in PBS at pH 7.4 assessed as half life; format: physicochemical
[6] = Stability of compound in PBS at pH 4.9 assessed as half life; format: physicochemical
[7] = Stability of compound in PBS buffer at pH 7.3 assessed as half life; format: physicochemical
[8] = Solubility of compound; format: physicochemical

Structure (SMILES): COCCN(CCOC)CC(=O)OCC(=O)O[C@H](CN(CC(C)C)S(=O)(=O)c1ccc2c(c1)OCO2)[C@H](Cc1ccc(OCc2csc(C)n2)cc1)NC(=O)O[C@H]1CO[C@H]2OCC[C@H]21
Cmax ([1]; read-out: Cmax): 1280 ng/mL | AUC ([2]; read-out: AUC): > 4000 ng·h/mL

Structure (SMILES): Cc1c(OC(=O)CCCCO[C@H]2O[C@H](CO)[C@@H](O)[C@H](O)[C@@H]2O)cccc1C(=O)N[C@@H](CSc1ccccc1)[C@H](O)CN1C[C@H]2CCCC[C@H]2C[C@H]1C(=O)NC(C)(C)C
half-life [7]: 50 h

Structure (SMILES): CC(C)(C)NC(=O)[C@@H]1CN(Cc2cccnc2)CCN1C[C@H](C[C@@H](Cc1ccccc1)C(=O)N[C@H]1c2ccccc2C[C@H]1OC(=O)CCCCO[C@H]1O[C@H](CO)[C@@H](O)[C@H](O)[C@@H]1O)OC(=O)CCCCO[C@H]1O[C@H](CO)[C@@H](O)[C@H](O)[C@@H]1O
half-life [7]: 50 h

Structure (SMILES): Cc1cccc(C)c1OCC(=O)N[C@@H](Cc1ccccc1)[C@H](OC(=O)CCC(=O)NCCCN1CCOCC1)C(=O)N1CSC(C)(C)[C@H]1C(=O)NC(C)(C)C
solubility [8]: 73600 µg/mL (≈ 94100 µM)

Structure (SMILES): Cc1nc(COc2ccc(C[C@H](NC(=O)O[C@H]3CO[C@H]4OCC[C@H]43)[C@@H](CN(CC(C)C)S(=O)(=O)c3ccc4c(c3)OCO4)OC(=O)CO[n+]3ccccc3)cc2)cs1
Cmax ([1]; read-out: Cmax): 272 ng/mL | AUC ([2]; read-out: AUC): > 7700 ng·h/mL

Structure (SMILES): Cc1cccc(C)c1OCC(=O)N[C@@H](Cc1ccccc1)[C@H](OC(=O)CCC(=O)NCCN1CCCC1)C(=O)N1CSC(C)(C)[C@H]1C(=O)NC(C)(C)C
solubility [8]: 93800 µg/mL (≈ 125000 µM)

Structure (SMILES): Cc1nc(COc2ccc(C[C@H](NC(=O)O[C@H]3CO[C@H]4OCC[C@H]43)[C@@H](CN(CC(C)C)S(=O)(=O)c3ccc4c(c3)OCO4)OC(=O)COC(=O)CN3CCOCC3)cc2)cs1
Cmax ([1]; read-out: Cmax): 1280 ng/mL | AUC ([2]; read-out: AUC): > 4000 ng·h/mL

Structure (SMILES): Cc1nc(COc2ccc(C[C@H](NC(=O)O[C@H]3CO[C@H]4OCC[C@H]43)[C@@H](CN(CC(C)C)S(=O)(=O)c3ccc4c(c3)OCO4)OC(=O)COC(=O)CN(C)CCc3ccccn3)cc2)cs1
Cmax ([1]; read-out: Cmax): 791 ng/mL | AUC ([2]; read-out: AUC): 5350 ng·h/mL

Structure (SMILES): Cc1c(OC(=O)CCCCO[C@H]2O[C@H](CO)[C@@H](O)[C@H](O)[C@@H]2O)cccc1C(=O)N[C@@H](CSc1ccccc1)[C@@H](CN1C[C@H]2CCCC[C@H]2C[C@H]1C(=O)NC(C)(C)C)OC(=O)CCCCO[C@H]1O[C@H](CO)[C@@H](O)[C@H](O)[C@@H]1O
half-life [7]: 50 h

Structure (SMILES): Cc1nc(COc2ccc(C[C@H](NC(=O)O[C@H]3CO[C@H]4OCC[C@H]43)[C@@H](CN(CC(C)C)S(=O)(=O)c3ccc4c(c3)OCO4)OC(=O)COCC(=O)NCc3ccccn3)cc2)cs1
Cmax ([1]; read-out: Cmax): 640 ng/mL | AUC ([2]; read-out: AUC): 6810 ng·h/mL

Structure (SMILES): CC(C)(C)NC(=O)[C@H]1C[C@@H]2CCCC[C@@H]2CN1C[C@@H](OC(=O)CCCCO[C@H]1O[C@H](CO)[C@@H](O)[C@H](O)[C@@H]1O)[C@H](Cc1ccccc1)NC(=O)[C@H](CC(N)=O)NC(=O)c1ccc2ccccc2n1
half-life [7]: 50 h

Structure (SMILES): Cc1nc(COc2ccc(C[C@H](NC(=O)O[C@H]3CO[C@H]4OCC[C@H]43)[C@H](O)CN(CC(C)C)S(=O)(=O)c3ccc4c(c3)OCO4)cc2)cs1 [BRECANAVIR]
Cmax [1]: 696 ng/mL | AUC [2]: 1960 ng·h/mL

Structure (SMILES): Cc1nc(COc2ccc(C[C@H](NC(=O)O[C@H]3CO[C@H]4OCC[C@H]43)[C@@H](CN(CC(C)C)S(=O)(=O)c3ccc4c(c3)OCO4)OC(=O)COCCOCC(=O)N(C)CCc3ccccn3)cc2)cs1
Cmax ([1]; read-out: Cmax): 513 ng/mL | AUC ([2]; read-out: AUC): 4220 ng·h/mL

Structure (SMILES): Cc1nc(COc2ccc(C[C@H](NC(=O)O[C@H]3CO[C@H]4OCC[C@H]43)[C@@H](CN(CC(C)C)S(=O)(=O)c3ccc4c(c3)OCO4)OC(=O)CONC(=N)N)cc2)cs1
Cmax ([1]; read-out: Cmax): 460 ng/mL | AUC ([2]; read-out: AUC): > 5000 ng·h/mL

Structure (SMILES): CC(C)(C)NC(=O)[C@@H]1CN(Cc2cccnc2)CCN1C[C@@H](O)C[C@@H](Cc1ccccc1)C(=O)N[C@H]1c2ccccc2C[C@H]1OC(=O)CCCCO[C@H]1O[C@H](CO)[C@@H](O)[C@H](O)[C@@H]1O
half-life [7]: 50 h

The next lines start with the values.

half-life [3]: 2.4 min | solubility [4]: 15000 µg/mL | half-life [5]: < 1 min | half-life [6]: 0.327 h
Structure (SMILES): Cc1ccccc1OCC(=O)O[C@H](C(=O)N1CSC[C@H]1C(=O)NC(C)(C)C)[C@@H](N)Cc1ccccc1.Cl

solubility [4]: 42 µg/mL (≈ 81.8 µM)
Structure (SMILES): Cc1ccccc1OCC(=O)N[C@@H](Cc1ccccc1)[C@H](O)C(=O)N1CSC[C@H]1C(=O)NC(C)(C)C

solubility [4]: 18 µg/mL (≈ 33.2 µM)
Structure (SMILES): Cc1ccccc1OCC(=O)N[C@@H](Cc1ccccc1)[C@H](O)C(=O)N1CSC(C)(C)[C@H]1C(=O)NC(C)(C)C

solubility [8]: 30300 µg/mL (≈ 40600 µM)
Structure (SMILES): Cc1cccc(C)c1OCC(=O)N[C@@H](Cc1ccccc1)[C@H](OC(=O)CCC(=O)NCc1cccnc1)C(=O)N1CSC(C)(C)[C@H]1C(=O)NC(C)(C)C

half-life [3]: 4.5 min | half-life [5]: < 1 min | half-life [6]: 0.413 h
Structure (SMILES): Cc1cccc(C)c1OCC(=O)O[C@H](C(=O)N1CSC(C)(C)[C@H]1C(=O)NC(C)(C)C)[C@@H](N)Cc1ccccc1.Cl

solubility [4]: 47 µg/mL (≈ 89.1 µM)
Structure (SMILES): CC(C)(C)NC(=O)[C@H]1N(C(=O)[C@@H](O)[C@H](Cc2ccccc2)NC(=O)COc2ccccc2)CSC1(C)C

solubility [4]: 123 µg/mL (≈ 246 µM)
Structure (SMILES): CC(C)(C)NC(=O)[C@@H]1CSCN1C(=O)[C@@H](O)[C@H](Cc1ccccc1)NC(=O)COc1ccccc1

From ChEMBL document CHEMBL5260814, “Design strategies in the prodrugs of HIV-1 protease inhibitors to improve the pharmaceutical properties” (Eur J Med Chem, 2017)
